# Data: US20220053762A1, “HERBICIDAL COMPOSITIONS” (Bayer Aktiengesellschaft, priority 2018, published 2022)
# System: harmful plant species
# Assay: Specific trial examples: binary compositions applied by the post-emergence method, synergistic effect according to Colby (Tables 3.1-3.2)
# Assay type: in vivo
# In short: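 Mono- and dicot weeds grown from seed or rhizome in sandy loam in greenhouse, sprayed post-emergence at three-leaf stage (three weeks after sowing) with formulated binary mixtures at various doses in 300–800 l/ha water. Efficacy rated at stated days after application; synergy judged versus summed single effects and Colby expected values.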
smiles,measurement,setting,value
"C=C[C@]1(C(=O)N[C@@H]2C=C(C(=O)NS(C)(=O)=O)OC2)CC(c2cc(F)cc(F)c2)=NO1 [Compound A4, (5S)-3-(3,5-difluorophenyl)-N-[(3R)-5-(methylsulfonylcarbamoyl)-2,3-dihydrofuran-3-yl]-5-vinyl-4H-isoxazole-5-carboxamide]",Herbicidal action 14 DAT against Alopecurus myosuroides,1 g a.i./ha,10%
same,Herbicidal action 14 DAT against Bromus sterilis,1 g a.i./ha,20%
same,Herbicidal action 14 DAT against Lolium rigidum (resistant biotype),1 g a.i./ha,10%
same,Herbicidal action 14 DAT against Matricaria inodora,1 g a.i./ha,40%
same,Herbicidal action 14 DAT against Poa annua L.,1 g a.i./ha,20%
same,Herbicidal action 14 DAT against Viola tricolor,1 g a.i./ha,30%
same,Herbicidal action 28 DAT against Alopecurus myosuroides,1 g a.i./ha,0%
same,Herbicidal action 28 DAT against Bromus sterilis,1 g a.i./ha,10%
same,Herbicidal action 28 DAT against Lamium purpureum L.,1 g a.i./ha,20%
same,Herbicidal action 28 DAT against Matricaria inodora,1 g a.i./ha,10%
same,Herbicidal action 28 DAT against Viola tricolor,1 g a.i./ha,0%
same,Herbicidal action 14 DAT against Centaurea cyanus,4 g a.i./ha,30%
same,Herbicidal action 14 DAT against Lamium purpureum L.,4 g a.i./ha,30%
same,Herbicidal action 14 DAT against Lolium rigidum (resistant biotype),4 g a.i./ha,10%
same,Herbicidal action 14 DAT against Matricaria inodora,4 g a.i./ha,30%
same,Herbicidal action 14 DAT against Viola tricolor,4 g a.i./ha,30%
same,Herbicidal action 28 DAT against Bromus sterilis,4 g a.i./ha,30%
same,Herbicidal action 28 DAT against Lolium rigidum,4 g a.i./ha,10%
same,Herbicidal action 28 DAT against Lolium rigidum (resistant biotype),4 g a.i./ha,0%
same,Herbicidal action 28 DAT against Matricaria inodora,4 g a.i./ha,10%
same,Herbicidal action 28 DAT against Phalaris minor,4 g a.i./ha,10%
same,Herbicidal action 28 DAT against Viola tricolor,4 g a.i./ha,0%
same,Herbicidal action 14 DAT against Alopecurus myosuroides,16 g a.i./ha,30%
same,Herbicidal action 14 DAT against Centaurea cyanus,16 g a.i./ha,40%
same,Herbicidal action 14 DAT against Poa annua L.,16 g a.i./ha,40%
same,Herbicidal action 28 DAT against Galium aparine,16 g a.i./ha,20%
same,Herbicidal action against Galium aparine,"(Z90) 28 DAT, g a.i./ha: r575 16, r576 270, r577 90, r578 30",20%
same,Herbicidal action against Lamium purpureum L.,"(Z90) 28 DAT, g a.i./ha: r586 16, r587 30",30%
same,Herbicidal action against Lolium rigidum,"(Z90) 28 DAT, g a.i./ha: r594 16, r595 30",10%
same,Herbicidal action against Matricaria inodora,"(Z90) 28 DAT, g a.i./ha: r602 4, r603 90",10%
same,Herbicidal action against Viola tricolor,"(Z90) 28 DAT, g a.i./ha: r624 4, r625 270",0%
same,Herbicidal action in [%] 28 DAT against Galium aparine,"post-emergence, single active compound (A4 series), g a.i./ha: r491 16, r492 50",20%
same,Herbicidal action in [%] 14 DAT against Lamium purpureum L.,"post-emergence, single active compound (A4 series), g a.i./ha: r501 4, r502 1, r503 450",30%
same,Herbicidal action in [%] 28 DAT against Lamium purpureum L.,"post-emergence, single active compound (A4 series), g a.i./ha: r512 4, r513 1, r514 450",20%
same,Herbicidal action in [%] 28 DAT against Lolium rigidum (resistant bio type),"post-emergence, single active compound (A4 series), g a.i./ha: r523 1, r524 450",0%
same,Herbicidal action in [%] 14 DAT against Poa annua L.,"post-emergence, single active compound (A4 series), g a.i./ha: r533 16, r534 450",40%
"C=C[C@]1(C(=O)N[C@H]2CO[C@@H](C(=O)NS(=O)(=O)C(F)(F)F)C2)CC(c2cc(F)cc(F)c2)=NO1 (relative stereo) [Compound A1, (5S)-3-(3,5-difluorophenyl)-N-[rel-(3R,5R)-5-(trifluoromethylsulfonylcarbamoyl)tetrahydrofuran-3-yl]-5-vinyl-4H-isoxazole-5-carboxamide]",Herbicidal action 28 DAT against Lolium rigidum (resistant biotype),1.67 g a.i./ha,0%
same,Herbicidal action 28 DAT against Lolium rigidum (sensitive biotype),1.67 g a.i./ha,0%
same,Herbicidal action 28 DAT against Alopecurus myosuroides (sensitive biotype),5 g a.i./ha,0%
same,Herbicidal action 28 DAT against Avena fatua,5 g a.i./ha,50%
same,Herbicidal action 28 DAT against Bromus sterilis,5 g a.i./ha,0%
same,Herbicidal action 28 DAT against Centaurea cyanus,5 g a.i./ha,20%
same,Herbicidal action 28 DAT against Euphorbia heterophylla,5 g a.i./ha,0%
same,Herbicidal action 28 DAT against Galium aparine,5 g a.i./ha,0%
same,Herbicidal action 28 DAT against Hordeum murinum,5 g a.i./ha,0%
same,Herbicidal action 28 DAT against Ipomoea purpurea,5 g a.i./ha,0%
same,Herbicidal action 28 DAT against Lamium purpureum,5 g a.i./ha,20%
same,Herbicidal action 28 DAT against Lolium rigidum (resistant biotype),5 g a.i./ha,0%
same,Herbicidal action 28 DAT against Lolium rigidum (sensitive biotype),5 g a.i./ha,0%
same,Herbicidal action 28 DAT against Phalaris minor,5 g a.i./ha,0%
same,Herbicidal action 28 DAT against Polygonum convolvulus,5 g a.i./ha,0%
same,Herbicidal action 28 DAT against Polygonum convulvulus,5 g a.i./ha,50%
same,Herbicidal action 28 DAT against Raphanus raphanistrum,5 g a.i./ha,80%
same,Herbicidal action 28 DAT against Stellaria media,5 g a.i./ha,0%
same,Herbicidal action 28 DAT against Veronica hederifolia,5 g a.i./ha,0%
same,Herbicidal action 28 DAT against Viola tricolor,5 g a.i./ha,0%
same,Herbicidal action 28 DAT against Alopecurus myosuroides (resistant biotype),15 g a.i./ha,60%
same,Herbicidal action 28 DAT against Alopecurus myosuroides (sensitive biotype),15 g a.i./ha,60%
same,Herbicidal action 28 DAT against Centaurea cyanus,15 g a.i./ha,30%
same,Herbicidal action 28 DAT against Euphorbia heterophylla,15 g a.i./ha,10%
same,Herbicidal action 28 DAT against Galium aparine,15 g a.i./ha,30%
same,Herbicidal action 28 DAT against Ipomoea purpurea,15 g a.i./ha,0%
same,Herbicidal action 28 DAT against Lamium purpureum,15 g a.i./ha,50%
same,Herbicidal action 28 DAT against Lolium rigidum (resistant biotype),15 g a.i./ha,0%
same,Herbicidal action 28 DAT against Lolium rigidum (sensitive biotype),15 g a.i./ha,0%
same,Herbicidal action 28 DAT against Phalaris minor,15 g a.i./ha,60%
same,Herbicidal action 28 DAT against Polygonum convolvulus,15 g a.i./ha,70%
same,Herbicidal action 28 DAT against Polygonum convulvulus,15 g a.i./ha,93%
same,Herbicidal action 28 DAT against Viola tricolor,15 g a.i./ha,20%
same,Herbicidal action against Echinochloa crus-galli,"28 DAT, g a.i./ha: r22 270, r23 90, r24 30, r25 5, r26 1.67",15%
same,Herbicidal action against Eleusine indica,"28 DAT, g a.i./ha: r62 270, r63 30, r64 15, r65 5",40%
same,Herbicidal action against Polygonum convulvulus,"28 DAT, g a.i./ha: r137 270, r138 90, r139 30, r140 5",50%
same,Herbicidal action against Alopecurus myosuroides (resistant biotype),"28 DAT, g a.i./ha: r165 15, r166 90, r167 30",60%
same,Herbicidal action against Lolium rigidum (resistant bio type),"28 DAT, g a.i./ha: r220 15, r221 5, r222 270, r223 90",0%
same,Herbicidal action against Veronica hederifolia,"28 DAT, g a.i./ha: r294 5, r295 90",0%
same,Herbicidal action 28 DAT against Euphorbia heterophylla,45 g a.i./ha,35%
same,Herbicidal action 28 DAT against Galium aparine,45 g a.i./ha,50%
same,Herbicidal action 28 DAT against Ipomoea purpurea,45 g a.i./ha,10%
same,Herbicidal action 28 DAT [%] against Digitaria sanguinalis,"post-emergence, single active compound (Glyphosate series), g a.i./ha: r765 50, r767 15",30%
same,Herbicidal action 28 DAT [%] against Setaria viridis,"post-emergence, single active compound (Glyphosate series), g a.i./ha: r786 450, r788 1.67",10%
same,Herbicidal action 28 DAT [%] against Abutilon theophrasti,"post-emergence, single active compound (Glyphosate series), g a.i./ha: r796 450, r798 5",0%
same,Herbicidal action 28 DAT [%] against Echinochloa crus-galli,"post-emergence, single active compound, g a.i./ha: r19 150, r20 50, r21 5",15%
same,Herbicidal action 28 DAT [%] against Bromus sterilis,"post-emergence, single active compound, g a.i./ha: r172 5, r173 1.67, r174 450",0%
same,Herbicidal action 28 DAT [%] against Galium aparine,"post-emergence, single active compound, g a.i./ha: r183 5, r184 50",0%
same,Herbicidal action 28 DAT [%] against Lamium purpureum,"post-emergence, single active compound, g a.i./ha: r204 45, r205 50",70%
same,Herbicidal action 28 DAT [%] against Lolium rigidum (sensitive biotype),"post-emergence, single active compound, g a.i./ha: r214 15, r215 150, r216 50",0%
same,Herbicidal action 28 DAT [%] against Lolium rigidum (resistant biotype),"post-emergence, single active compound, g a.i./ha: r224 15, r225 5, r226 150, r227 50",0%
same,Herbicidal action 28 DAT [%] against Papaverrhoeas,"post-emergence, single active compound, g a.i./ha: r235 5, r236 450, r237 50",40%
same,Herbicidal action 28 DAT [%] against Raphanus raphanistrum,"post-emergence, single active compound, g a.i./ha: r282 5, r283 150, r284 50",80%
same,Herbicidal action 28 DAT [%] against Veronica hederifolia,"post-emergence, single active compound, g a.i./ha: r292 5, r293 150",0%
